This assay concerns the target T1, CD73 on 4T1 mouse cells (Mus musculus, UniProt Q61503).
T1 construct: host or cells: 4T1
T1 sequence (Q61503 29-551): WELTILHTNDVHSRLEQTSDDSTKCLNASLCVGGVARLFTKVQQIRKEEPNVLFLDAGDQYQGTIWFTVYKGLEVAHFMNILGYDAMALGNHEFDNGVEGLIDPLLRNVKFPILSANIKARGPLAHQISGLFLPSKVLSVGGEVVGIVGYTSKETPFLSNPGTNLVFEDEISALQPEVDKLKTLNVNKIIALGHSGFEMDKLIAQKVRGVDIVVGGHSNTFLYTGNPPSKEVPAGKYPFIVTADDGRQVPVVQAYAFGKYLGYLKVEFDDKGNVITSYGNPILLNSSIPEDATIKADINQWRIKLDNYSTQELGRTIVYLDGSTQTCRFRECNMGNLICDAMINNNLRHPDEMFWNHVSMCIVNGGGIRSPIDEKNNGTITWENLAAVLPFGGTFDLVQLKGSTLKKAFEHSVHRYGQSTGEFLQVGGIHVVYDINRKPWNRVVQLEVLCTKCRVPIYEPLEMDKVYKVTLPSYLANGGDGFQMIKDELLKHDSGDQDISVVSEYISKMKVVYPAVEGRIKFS
Nature of the assay: CD73 enzyme inhibition assay with mouse 4T1 cells (PiColorLock). The class given is cell-based. As to conditions: 4T1 cancer cells, AMP 100 μM. On the procedure:
The cell-based CD73 enzyme inhibition assay was performed in a 96-well plate format using the PiColorLock phosphate assay kit in accordance with the manufacturer's instructions (Abcam cat no. 270004). 4T1 mouse cells are a model for stage IV human breast cancer (ATCC CRL-2539) and human peripheral blood mononuclear cells (PBMCs; StemCell Technologies cat no. 70025) from three different donors were assayed. 4T1 cells were washed three times with a phosphate-free CD73 buffer (Lawson et al., 2020), detached from tissue-culture flasks using a cell scraper, and seeded at 5×10^3 cells/well into 96-well tissue culture-treated plates. Human PBMCs were washed three times with phosphate-free CD73 buffer at 125×g for 10 min at room temperature and seeded at 1×10^5 cells/well into 96-well tissue culture-treated plates. Test articles were tested from 0.001 nM to 1,000 nM (4T1 cells) or 0.0001 nM to 100 nM (PBMCs) and incubated with cells for 30 min at 37° C., 5% CO2. AMP (100 μM final concentration) was added to cells and test articles, and the reaction incubated for 3 h and 24 h at 37° C., 5% CO2. The conversion of AMP to adenosine and phosphate in cell-free supernatant was quantified using the PiColorLock kit. Colorimetric detection reagent was added and the phosphate production was measured by reading the absorbance at 635 nm with the EnSpire multimode plate reader (PerkinElmer). Cells without test article (positive control) were included on each plate. Control wells without test article and cells (background) were subtracted from all wells. Percent CD73 inhibition versus inhibitor concentration was plotted using GraphPad Prism Version 8 and IC50's calculated using nonlinear regression analysis (Sigmoidal, 4 PL).

Broadly, the IC50 is the midpoint of a concentration-inhibition curve.

Read-outs that look alike come from different tables or passages of the source.

With `C[C@H](Nc1cc(Cl)nc2c1cnn2[C@@H]1O[C@H](COP(=O)(O)CP(=O)(O)O)[C@@H](O)[C@H]1O)c1ccccc1F` [AB680], the 50% inhibitory concentration (IC50) by setting is: (24 h, read-out: 24 h IC50) 85.7 nM; (3 h IC50 [nM], 3 h) 6.79 nM.

As for `COC[C@](CO)(OC[C@H]1O[C@@H](n2ncc3c(NC4CCCC4)nc(Cl)nc32)[C@H](O)[C@@H]1O)P(=O)(O)O` [OP-5244], the IC50 (24 h, read-out: 24 h IC50) stood at 24 nM and the IC50 (read-out: 3 h IC50, 3 h) was determined as 1.67 nM.

In the case of `O=P(O)(O)COC[C@H]1O[C@@H](n2ncc3c(N4CC5(CCc6ccccc65)C4)nc(Cl)nc32)[C@H](O)[C@@H]1O` [SHR170008], the IC50 was 114 nM (24 h, read-out: 24 h IC50) and 8.2 nM (read-out: 3 h IC50, 3 h).
